Data reported in US20010011137A1, “Use of triphenylmethyl-1,2,3-triazoles” (priority 1996, published 2001).

melting point: 162 °C
Compound: Clc1ccccc1C(c1ccccc1)(c1ccccc1)n1ccnn1 [Example 10, 1-(2-chlorotrityl)-1H-1,2,3-triazole]
